“Also recorded” adds a separate entry of the source.
Legend:
[1] = test system: Wobbler mouse; assay: Wobbler mouse model of ALS; format: in vivo; conditions: administration for 21 days
[2] = test system: GR; assay: Dexamethasone-induced TAT activity in primary hepatocytes from monkeys; format: cell-based
Experimental: (§1) Dazucorilant is selective for GR over other nuclear hormone receptors, and a range of other receptors, enzymes, and ion channels. For example, dazucorilant has high selectivity for GR relative to the progesterone receptor (PR), androgen receptor, and estrogen receptor, showing no significant binding to these receptors at a concentration of 10 μM (0%, 1.5% and […], respectively).

[3] = molecular target: T1, progesterone receptor (PR) (Homo sapiens, UniProt P06401); assay: Progesterone receptor binding; conditions: 10 μM
T1 sequence (P06401 1-933): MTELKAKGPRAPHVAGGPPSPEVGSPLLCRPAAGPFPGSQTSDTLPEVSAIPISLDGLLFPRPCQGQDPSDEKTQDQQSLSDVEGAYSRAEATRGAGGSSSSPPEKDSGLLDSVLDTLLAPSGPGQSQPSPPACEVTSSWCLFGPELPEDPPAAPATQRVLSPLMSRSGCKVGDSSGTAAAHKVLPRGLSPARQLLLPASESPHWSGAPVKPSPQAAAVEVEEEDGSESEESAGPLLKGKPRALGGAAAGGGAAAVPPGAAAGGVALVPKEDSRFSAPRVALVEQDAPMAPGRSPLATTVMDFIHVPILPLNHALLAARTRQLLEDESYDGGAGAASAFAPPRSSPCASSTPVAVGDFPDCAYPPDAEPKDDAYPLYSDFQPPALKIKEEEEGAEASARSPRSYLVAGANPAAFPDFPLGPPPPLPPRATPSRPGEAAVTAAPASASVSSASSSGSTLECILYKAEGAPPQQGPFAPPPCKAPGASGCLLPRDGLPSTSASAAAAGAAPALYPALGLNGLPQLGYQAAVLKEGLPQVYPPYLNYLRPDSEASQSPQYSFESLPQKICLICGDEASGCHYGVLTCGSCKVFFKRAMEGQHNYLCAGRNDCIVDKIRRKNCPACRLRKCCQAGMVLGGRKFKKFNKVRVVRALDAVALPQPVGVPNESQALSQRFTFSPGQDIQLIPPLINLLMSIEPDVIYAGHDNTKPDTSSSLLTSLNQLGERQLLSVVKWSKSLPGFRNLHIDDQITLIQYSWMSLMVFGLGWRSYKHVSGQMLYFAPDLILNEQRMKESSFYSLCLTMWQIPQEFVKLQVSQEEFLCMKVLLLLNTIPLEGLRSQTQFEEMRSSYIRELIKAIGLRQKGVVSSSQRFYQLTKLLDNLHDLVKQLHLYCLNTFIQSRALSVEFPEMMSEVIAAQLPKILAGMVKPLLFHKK

[4] = Brain penetration study, multiple oral dose PK in plasma and CSF; format: in vivo, human
Experimental: (§2) An adaptive dose, double-blind, placebo-controlled study (NCT04249323, EudraCT 2019-004258-27) was conducted in 110 healthy male and female volunteers (18-60 years old; BMI 18-30 kg/m2; weight≤102 kg; “First In Human” (FIH) study).

[5] = First In Human study Part 1, single ascending dose PK with or without food; conditions: for AUC(0-inf)/D (adjusted geometric mean) / AUC(0-last)/D (adjusted geometric mean) / Cmax/D (adjusted geometric mean): single dose
Experimental: as §2
ANOVA model of natural log-transformed PK parameters from part 1 of the FIH study, including a term for treatment fitted as fixed effect. PK parameters normalized to the equivalent of a 1-mg dose. AUC, area under the curve; CI, confidence interval; Cmax, maximum concentration; D, dose.
ANOVA model of natural log-transformed PK parameters from part 1 of the FIH study, including a term for treatment fitted as fixed effect. CI, confidence interval; Cmax, maximum concentration; AUC, area under the curve.

[6] = test system: estrogen receptor; assay: Estrogen receptor binding; conditions: 10 μM
Experimental: as §1

[7] = test system: cortisol or ACTH levels; assay: First In Human study Part 2, multiple doses: cortisol and ACTH levels; format: in vivo; conditions: part 2 of the FIH study
Experimental: as §2

[8] = molecular target: T2, GR (Homo sapiens, UniProt P04150); assay: GR binding (competitive, reversible); conditions: read-out: affinity for GR
T2 sequence (P04150 1-777): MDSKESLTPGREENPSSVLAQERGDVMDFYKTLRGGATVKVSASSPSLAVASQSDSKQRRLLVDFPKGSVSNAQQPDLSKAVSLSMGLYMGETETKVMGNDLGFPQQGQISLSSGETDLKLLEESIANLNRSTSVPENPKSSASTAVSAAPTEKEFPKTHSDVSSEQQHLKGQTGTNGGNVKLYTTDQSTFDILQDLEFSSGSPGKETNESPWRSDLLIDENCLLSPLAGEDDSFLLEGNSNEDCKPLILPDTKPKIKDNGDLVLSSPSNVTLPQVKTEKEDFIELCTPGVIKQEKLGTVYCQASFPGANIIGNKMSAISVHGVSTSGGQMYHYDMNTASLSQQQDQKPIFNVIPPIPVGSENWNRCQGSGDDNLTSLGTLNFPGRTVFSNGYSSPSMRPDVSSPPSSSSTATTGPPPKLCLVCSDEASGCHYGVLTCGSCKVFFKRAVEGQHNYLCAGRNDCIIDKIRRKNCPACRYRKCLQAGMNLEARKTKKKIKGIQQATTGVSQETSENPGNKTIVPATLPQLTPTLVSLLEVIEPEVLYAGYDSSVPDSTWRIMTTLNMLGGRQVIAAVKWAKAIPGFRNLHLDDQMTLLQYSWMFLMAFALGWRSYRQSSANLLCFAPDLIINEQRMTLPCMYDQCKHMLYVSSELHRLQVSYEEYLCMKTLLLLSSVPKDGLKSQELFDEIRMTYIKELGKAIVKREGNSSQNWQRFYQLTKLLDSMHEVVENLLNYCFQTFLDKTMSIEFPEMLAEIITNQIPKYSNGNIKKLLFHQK
Experimental: as §1

[9] = 2-fold dose escalation, 450 mg to 900 mg fed
[10] = 3-fold dose escalation, 150 mg to 450 mg fasted

O=C(c1ccccn1)[C@]12Cc3cnn(-c4ccc(F)cc4)c3C=C1CCN(S(=O)(=O)c1ccc(C(F)(F)F)cc1)C2 [dazucorilant, (R)-(1-(4-fluorophenyl)-6-((4-(trifluoromethyl)phenyl)sulfonyl)-4,4a, 5,6,7,8-hexahydro-1-H-pyrazolo[3,4-g]isoquinolin-4a-yl) (pyridin-2-yl)methanone]
forepaw atrophy [1]: reducing forepaw atrophy | neurodegeneration and inflammation [1]: inhibiting neurodegeneration and inflammation | performance in the rotarod test [1]: overcoming the impaired performance in the rotarod test | dexamethasone-induced increase in TAT activity [2]: prevented the dexamethasone-induced increase in TAT activity | binding to progesterone receptor [3]: 0% | dose proportionality of exposures ([4]; 300 mg relative to 150 mg, daily for 14 days): greater than dose-proportional increase in dazucorilant exposures | detection in the CSF ([4]; 1 week of QD dosing, 150 mg and 300 mg, fed): detectable in the CSF in all study participants | time to steady state of exposure ([4]; QD dosing): ≤ 1 week | distribution to the cerebrospinal fluid (CSF) ([4]; oral administration, healthy volunteers): distribution of dazucorilant is observed in the cerebrospinal fluid; also recorded: distribution to the CSF was observed | steady state exposures (Cmax, AUC0-24), 300 vs. 150 mg ([4]; steady state, QD dosing): approximately 4 fold | AUC(0-inf)/D (adjusted geometric mean) ([5]; 150 mg FASTED): 2.18 ng·h/mL/mg | AUC(0-last)/D (adjusted geometric mean) ([5]; 150 mg FASTED): 1.69 ng·h/mL/mg | Cmax/D (adjusted geometric mean) ([5]; 150 mg FASTED): 0.494 ng/mL/mg | exposure in fed vs fasted subjects ([5]; 300 mg with and without food, FIG. 1A/1B): Greater dazucorilant exposure was observed when dazucorilant was administered to fed subjects | AUC(0-inf) Ratio Fed:Fasted ([5]; 450 mg): 250.7% | AUC(0-last) Ratio Fed:Fasted ([5]; 450 mg): 250.7% | Cmax Ratio Fed:Fasted ([5]; 450 mg): 202.3% | AUC(0-inf) (adjusted geometric mean) ([5]; 450 mg FASTED): 1290 ng·h/mL | AUC(0-last) (adjusted geometric mean) ([5]; 450 mg FASTED): 1180 ng·h/mL | Cmax (adjusted geometric mean) ([5]; 450 mg FASTED): 251 ng/mL | AUC(0-inf)/D (adjusted geometric mean) ([5]; 450 mg FASTED): 2.86 ng·h/mL/mg | AUC(0-last)/D (adjusted geometric mean) ([5]; 450 mg FASTED): 2.62 ng·h/mL/mg | Cmax/D (adjusted geometric mean) ([5]; 450 mg FASTED): 0.557 ng/mL/mg | AUC(0-inf) (adjusted geometric mean) ([5]; 450 mg FED): 3220 ng·h/mL | AUC(0-last) (adjusted geometric mean) ([5]; 450 mg FED): 2950 ng·h/mL | Cmax (adjusted geometric mean) ([5]; 450 mg FED): 508 ng/mL | AUC(0-inf)/D (adjusted geometric mean) ([5]; 450 mg FED): 7.17 ng·h/mL/mg | AUC(0-last)/D (adjusted geometric mean) ([5]; 450 mg FED): 6.56 ng·h/mL/mg | Cmax/D (adjusted geometric mean) ([5]; 450 mg FED): 1.13 ng/mL/mg | AUC(0-inf)/D Ratio High:Low Dose ([5]; 450 mg vs 150 mg FASTED): 131.3% | AUC(0-last)/D Ratio High:Low Dose ([5]; 450 mg vs 150 mg FASTED): 155.2% | Cmax/D Ratio High:Low Dose ([5]; 450 mg vs 150 mg FASTED): 112.9% | AUC(0-inf)/D (adjusted geometric mean) ([5]; 900 mg FED): 10.2 ng·h/mL/mg | AUC(0-last)/D (adjusted geometric mean) ([5]; 900 mg FED): 8.33 ng·h/mL/mg | Cmax/D (adjusted geometric mean) ([5]; 900 mg FED): 1.23 ng/mL/mg | AUC(0-inf)/D Ratio High:Low Dose ([5]; 900 mg vs 450 mg FED): 42.3% | AUC(0-last)/D Ratio High:Low Dose ([5]; 900 mg vs 450 mg FED): 127.0% | Cmax/D Ratio High:Low Dose ([5]; 900 mg vs 450 mg FED): 109.2% | increase in AUC(0-inf) on dose escalation [5, 9]: 2.8 fold | increase in Cmax on dose escalation [5, 9]: 2.2 fold | increase in AUC(0-inf) on dose escalation [5, 10]: 4.0 fold | increase in Cmax on dose escalation [5, 10]: 3.4 fold | food effect, increase in exposure ([5]; high-fat breakfast vs fasting (Table 2, 450 mg)): > 2 fold | binding to estrogen receptor [6]: 37.5% | effects on morning or evening cortisol or ACTH levels [7]: no notable effects | Ki [8]: 0.28 nM

From patent US12433882B2, “Treatments for amyotrophic lateral sclerosis using dazucorilant” (Corcept Therapeutics Incorporated, priority 2022, dated 2025)
